According to US20250326814A1, “MODIFIED OXYNTOMODULIN AND METHODS OF USE THEREOF” (OPKO BIOLOGICS LTD., priority 2024, published 2025):
“Also recorded” adds a separate entry of the source. Non-standard residues stand in square brackets, D forms with d. Residues, ends and D or L forms follow the SMILES beside them. *: point of attachment. X1 = O=C(O)CCCCCCCCCCCCCCCCCCC(=O)N[C@@H](CCC(=O)NCCOCCOCC(=O)NCCOCCOCC(=O)N[C@@H](CCCCNC(=O)C*)C(=O)NCC(=O)O)C(=O)O; Aib = CC(C)(N)C(=O)O

Assays:
[1] = Solubility data of the binder complex; format: physicochemical
Source text: The structure and characteristics of the binder complex are detailed in Table 4 below.

[2] = target: T1, glucagon-like peptide-1 (GLP1) receptor (Homo sapiens, UniProt P43220); test: GLP-1 activity EC50 of OXM analogs and GLP-1 therapeutics (Example 4, Table 9); format: cell-based; details: GLP-1 activity; Table 9; read-out: EC50
T1 construct: expressed in transfected cells; host or cells: CHO-K1
T1 sequence (P43220 24-463): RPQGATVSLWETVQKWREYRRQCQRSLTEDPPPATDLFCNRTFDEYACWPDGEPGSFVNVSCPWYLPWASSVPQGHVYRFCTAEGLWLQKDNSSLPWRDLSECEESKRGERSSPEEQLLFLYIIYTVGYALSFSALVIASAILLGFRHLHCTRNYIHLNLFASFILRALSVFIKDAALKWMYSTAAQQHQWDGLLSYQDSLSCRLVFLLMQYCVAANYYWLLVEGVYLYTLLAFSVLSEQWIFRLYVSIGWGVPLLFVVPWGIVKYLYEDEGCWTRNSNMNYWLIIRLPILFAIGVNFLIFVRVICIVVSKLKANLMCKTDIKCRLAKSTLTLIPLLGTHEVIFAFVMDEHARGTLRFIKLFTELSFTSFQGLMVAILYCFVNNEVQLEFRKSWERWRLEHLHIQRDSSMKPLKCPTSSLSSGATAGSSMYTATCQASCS
Source text: The potencies of the modified OXM analogs newly disclosed in the present application, the OXM Analog alone, and the PEGylated OXM analog were examined and compared by measuring the EC50 of both receptors, glucagon-like peptide-1 (GLP1) and glucagon (GCGR).

GLP1 = GLP1 (Homo sapiens, UniProt P43220); test: GLP-1 activity in vitro of PEGylated and acylated OXM peptide analogs (Table 12); format: cell-based
Sequence of GLP1 (P43220 24-463): as above
Experimental: (§4) The potential benefits of novel acylated OXM products relative to the PEGylated OXM peptide were evaluated for GLP-1 and Glucagon activity in vitro, molecular weight, dosing, and efficacy in a DIO Mouse model.
(§5) The potency of the acylated OXM peptides was compared with the native OXM peptide alone and Pegylated OXM peptide to evaluate the impact of acylation on GLP-1 and Glucagon activities.

GCGR = GCGR (Homo sapiens, UniProt P47871); test: Glucagon activity in vitro of PEGylated and acylated OXM peptide analogs (Table 12); format: cell-based
Sequence of GCGR (P47871 26-477): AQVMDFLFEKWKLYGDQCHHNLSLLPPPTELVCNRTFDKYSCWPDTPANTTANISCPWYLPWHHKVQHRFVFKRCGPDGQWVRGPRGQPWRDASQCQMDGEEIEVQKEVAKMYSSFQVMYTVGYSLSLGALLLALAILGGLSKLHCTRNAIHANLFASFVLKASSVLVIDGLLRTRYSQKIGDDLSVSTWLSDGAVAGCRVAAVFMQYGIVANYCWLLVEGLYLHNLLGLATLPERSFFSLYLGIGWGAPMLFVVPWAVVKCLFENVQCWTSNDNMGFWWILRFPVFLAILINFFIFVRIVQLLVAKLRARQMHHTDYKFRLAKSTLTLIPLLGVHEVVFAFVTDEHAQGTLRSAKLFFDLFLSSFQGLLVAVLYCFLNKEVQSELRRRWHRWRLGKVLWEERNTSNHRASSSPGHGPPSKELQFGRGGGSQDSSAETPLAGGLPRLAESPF
Experimental: as §4, §5

DIO mice [3] = test: Body weight and food intake in DIO mice, 4 weeks daily treatment; format: in vivo
Experimental: (§1) The animals were individually weighed and analyzed for lipid and cholesterol levels prior to treatment and following completion of the study. The levels of fasting glucose and insulin levels were analyzed, and oral glucose tolerance test was performed and compared between groups The levels of plasma triglycerides and cholesterol were evaluated at the end of study and compared to base levels prior to treatment. Levels of total cholesterol, triglycerides and glycogen were also examined at the end of study. Histology of liver was used to analyze for lipid droplets in the liver. All tests were conducted using routine methods known in the art.
The mice used in the studies were the gubra diet-induced obese (DIO) mouse model. This mouse model is fed a high fat diet that results in rapid weight gain. The DIO mice were based on male C57BI/6J mice and ready for experiment after 18 weeks on a 60% high fat diet.
To ensure accurate monitoring of weight changes over the course of the study, the animals were weighed daily with precision, prior to dosing at 7:00 AM. Body weight data was recorded in two formats: (1) Absolute measurements: The direct weight of the animal each day, and (2) Relative measurements: The weight expressed as a percentage relative to the body weight recorded on Day 1.
(§2) Sixty C57BL/6JRj male mice were fed a high fat diet (60% HFD, D12492—Ssniff) for 20 weeks before treatment start. […] Body weight and food intake (24 h) were measured daily. In week 3, an OGTT study was performed. Baseline and preterminal fasting blood glucose and plasma insulin were assessed. Preterminal plasma TC and TG were assessed. Terminal endpoints included liver and heart weight, liver TC, TG, […] and lipid content (HE staining).

DIO mice [4] = test: Body composition (fat and lean tissue mass) in DIO mice; format: in vivo
Experimental: The body composition of mice was assessed by an EchoMRI 3 in 1 Body composition analyzer (EchoMRI, US). Non-anaesthetized animals were placed in a plastic tube inside the MRI scanner for approximately 80 seconds. The body composition was reported as fat mass and fat free mass (lean mass).
as §2

DIO mice [5] = test: Liver cholesterol, triglyceride and glycogen in DIO mice; format: in vivo
Experimental: (§3) After termination, the liver was collected and weighed. Specific liver samples and biopsies were dissected and processed as specified in table “Termination samples” in the protocol and further described below.
The Liver TG TC piece (25±5 mg) was dissected from the right medial lobe, with no edges, on the opposite side of the sponsor piece. The samples were weighed individually, collected in tubes and frozen in liquid nitrogen. The samples were stored at −70° C.
Liver Triglycerides (TG) and Total cholesterol (TC): The liver content of triglyceride and total cholesterol was extracted from the liver samples into 5% NP-40, in a homogenization process followed by a heating step, where the samples were heated twice to 90° C. The samples were then centrifuged, and the supernatant was collected. The TG and TC levels were then determined by measurement on the cobas c 501 autoanalyzer with the relevant commercial kits from Roche Diagnostics.
as §2

DIO mice [6] = test: Liver H&E staining for lipid droplets / liver lipid in DIO mice; format: in vivo
Experimental: In summary, glass slides with paraffin embedded sections were deparaffinated in xylene and rehydrated in series of graded ethanol.
Slides treated with histochemical and immunohistochemical stains were scanned using a 20× objective in a ScanScope AT slide scanner (Aperio).
Hematoxylin & Eosin (H&E) staining: Sections of FFPE tissue were incubated in Mayer's Hematoxylin (Dako), washed in tap water, stained in Eosin Y solution (Sigma-Aldrich), dehydrated in graded ethanol and cover slipped.
as §2

DIO mice [7] = test: Plasma cholesterol and triglyceride in DIO mice; format: in vivo
Experimental: For termination blood samples, during anesthesia with isoflurane, the abdominal cavity was opened, and cardiac blood was drawn with a syringe into a Microvette/Vacuette of appropriate dimensions with anticoagulant and mixed by inversion 5 times. Blood was placed at 4° C. until centrifuged at 3000 g for 10 minutes. The plasma supernatants were transferred to new tubes and immediately frozen on dry ice. The samples were stored at −70° C.
Alanine transaminase (ALT), Aspartate transaminase (AST), Triglycerides (TG) and Total Cholesterol (TC): Blood samples were collected in heparinized tubes and plasma was separated and stored at −70° C. until analysis. Samples were measured using commercial kits (Roche Diagnostics), on the cobas c 501 autoanalyzer.
as §2

DIO mice [8] = test: Fasting blood glucose and plasma insulin in DIO mice; format: in vivo
Experimental: For in vivo blood samples, tail-vein, tongue or cheek blood was collected in a Microvette tube of appropriate dimensions with anticoagulant and mixed by inversion 5 times. Blood was placed at 4° C. until centrifuged at 3000 g for 10 minutes. The plasma supernatants were transferred to new tubes and immediately frozen on dry ice. The samples were stored at −70° C.
Insulin: Blood samples were collected in heparinized tubes and plasma was separated and stored at −70° C. until analysis. Insulin was measured using the commercial MSD platform (Meso Scale Diagnostics).
as §2

DIO mice [9] = test: Oral glucose tolerance test in DIO mice; format: in vivo
Experimental: Animals were housed in a clean cage and fasted for 4 hours prior to oral or intraperitoneal glucose administration. At timepoint 0, mice receive an oral or intraperitoneal dose of 10 ml/kg of 200 mg/ml standard glucose solution (Fresenius Kabi, DK). At timepoint 0, mice received an oral or intraperitoneal dose of 4 ml/kg of standard 500 mg/ml glucose solution (Fresenius Kabi, DK). Blood samples (10 μl) were collected at various timepoints defined in the study protocol into heparinized glass capillary tubes and immediately suspended in glucose/lactate system solution buffer (EKF-diagnostics, Germany). Blood glucose (BG) was measured using a BIOSEN c-Line glucose meter (EKF-diagnostics, Germany) according to the manufacturer's instructions. After the last blood sample and/or drug dose, the animals were returned to the normal feeding schedule.
as §2

DIO mice [10] = test: Organ weights at termination in DIO mice; format: in vivo; details: mid and high (5 and 15 nmol/kg)
Experimental: as §3, §2

DIO mice [11] = test: Weight loss in DIO mice with OPK-88604 and OPK-88006, 30 nmoles/kg; format: in vivo; details: vs placebo, listed as OPK-88604
Experimental: as §1
DIO mice with weights of around 55 grams were divided into three groups and treated with placebo, 30 nmoles/kg of OPK-88604, or 30 nmoles/kg of OPK-88006 for 4 weeks. The animals were weighed daily for the period of treatment.

[12] = 15 nmol/kg daily, 28 days, OPK-88604 vs semaglutide
[13] = 28 day treatment, vs semaglutide
[14] = mid and high (5 and 15 nmol/kg)
[15] = 28 day treatment, vs semaglutide, listed as OPK-88604

With “Eicosanedioic-[…]Glu-(AEEA)2-Lys(Ac-Br)-Gly-OH [Binder Complex]” the Solubility data [1] was “Water-based buffer at pHs 6.5-7.5”.
`CC[C@H](C)[C@H](NC(=O)[C@H](CC(N)=O)NC(=O)[C@H](CC(N)=O)NC(=O)[C@H](CCCNC(=N)N)NC(=O)[C@H](CC(N)=O)NC(=O)[C@H](CCCNC(=N)N)NC(=O)CNC(=O)C(C)(C)NC(=O)[C@H](CC(N)=O)NC(=O)[C@H](CC(C)C)NC(=O)[C@H](CC(C)C)NC(=O)[C@H](Cc1c[nH]c2ccccc12)NC(=O)[C@H](CCC(N)=O)NC(=O)[C@@H](NC(=O)[C@H](Cc1ccccc1)NC(=O)[C@H](CCC(=O)O)NC(=O)[C@H](CCC(N)=O)NC(=O)[C@H](C)NC(=O)[C@H](CCCCN)NC(=O)[C@H](CCCCN)NC(=O)[C@H](CO)NC(=O)[C@H](CC(=O)O)NC(=O)[C@H](CC(C)C)NC(=O)[C@H](Cc1ccc(O)cc1)NC(=O)[C@H](CCCCN)NC(=O)[C@H](CO)NC(=O)[C@H](Cc1ccc(O)cc1)NC(=O)[C@H](CC(=O)O)NC(=O)[C@H](CO)NC(=O)[C@@H](NC(=O)[C@H](Cc1ccccc1)NC(=O)[C@@H](NC(=O)CNC(=O)[C@H](CCC(N)=O)NC(=O)C(C)(C)NC(=O)[C@@H](N)Cc1c[nH]cn1)[C@@H](C)O)[C@@H](C)O)C(C)C)C(=O)N[C@@H](C)C(=O)N[C@@H](CSCC(=O)NCCCC[C@H](NC(=O)COCCOCCNC(=O)COCCOCCNC(=O)CC[C@H](NC(=O)CCCCCCCCCCCCCCCCCCC(=O)O)C(=O)O)C(=O)NCC(=O)O)C(N)=O` [Variant 1] (H-H[Aib]QGTFTSDYSKYLDSKKAQEFVQWLLN[Aib]GRNRNNIAC(X1)-NH2) gave an EC50 [2] of 90 pM, an EC50 (GLP1) of 0.0159 nM and an EC50 (GCGR) of 0.164 nM. The GCGR/GLP-1R (GCGR; ratio of EC50 activity) was 10.3, the “food consumption / cumulative food intake (FIG. 17B, 18B)” value (DIO mice [3]; [12]) was “Reduced food consumption significantly less than treatment with semaglutide” and the “weight loss from baseline (FIG. 17A, 18A)” value (DIO mice [3]; 15 nmol/kg daily, 28 days, OPK-88604 vs semaglutide vs placebo) was “similar”. The “relative body weight (day 28), P compared to Vehicle (FIG. 16B)” value (DIO mice [3]; Mid, 5 nmol/kg QD SC) was under 0.05, the “absolute and relative body weight and fat mass compared to the vehicle group” value (DIO mice [3]; high (15 nmol/kg), four weeks) was “reduced both absolute and relative body weight and fat mass” and the “relative body weight compared to the vehicle group” value (DIO mice [3]; mid (5 nmol/kg), four weeks) was “reduced relative body weight”. For the same compound, the “relative fat tissue mass / relative lean tissue mass at week 4, P compared to Vehicle (FIG. 22A, 22B)” value (DIO mice [4]; 15 nmol/kg QD SC) was under 0.01, the “relative lean body mass and fat mass change from baseline on day 28 (FIG. 24A, 24B)” value (DIO mice [4]; [12]) was “statistically similar” and the “total liver cholesterol, P compared to Vehicle (FIG. 25B)” value (DIO mice [5]; 15 nmol/kg QD SC) was under 0.05. The “total liver cholesterol, triglycerides and glycogen, change from baseline on day 28 (FIG. 28A-C)” value (DIO mice [5]; [13]) was “significantly more effective in reducing total liver cholesterol, triglycerides, and glycogen”, the “total liver TC” value (DIO mice [5]; high (15 nmol/kg)) was “reduced” and the “liver TG (total and relative)” value (DIO mice [5]; [14]) was “reduced”. The “relative liver lipid / total liver lipid, P compared to Vehicle (FIG. 31A, 31B)” value (DIO mice [6]; 15 nmol/kg QD SC) was under 0.001, the “lipid droplets in liver, H&E staining (FIG. 30A-C)” value (DIO mice [6]; 28 day treatment, vs placebo and semaglutide, listed as OPK-88604) was “reduced the amount of lipid droplets in liver compared to placebo and animals treated with semaglutide; also recorded: Significantly reduced the amount of lipid droplets in liver compared to Semaglutide” and the “liver lipid content (total and relative)” value (DIO mice [6]; high (15 nmol/kg)) was “reduced”. The “total plasma cholesterol and triglycerides on day 28 (FIG. 33A, 33B)” value (DIO mice [7]; [13]) was “significantly more effective in reducing total plasma cholesterol and triglycerides compared to semaglutide”, the “plasma TC levels at termination” value (DIO mice [7]; [14]) was “reduced” and the “fasting glucose change from baseline on day 28 (FIG. 35A)” value (DIO mice [8]; [15]) was “significant decrease in fasting glucose levels compared to semaglutide treatment; also recorded: significantly more effective in lowering fasting glucose levels”. For the same compound, the “fasting insulin change from baseline on day 28 (FIG. 35B)” value (DIO mice [8]; [15]) was “marked increase in insulin levels from baseline compared to semaglutide treatment; also recorded: increased insulin levels compared to Semaglutide”, the “blood glucose levels at study week 4” value (DIO mice [8]; all doses (2, 5, 15 nmol/kg)) was “reduced blood glucose levels” and the “plasma insulin levels during the glucose tolerance test and preterminal” value (DIO mice [8]; high (15 nmol/kg)) was “decreased”. For the same compound, the “blood glucose in response to an oral glucose bolus compared to vehicle controls” value (DIO mice [9]; all OPK-88604 groups (2, 5, 15 nmol/kg)) was “reduced blood glucose compared to vehicle controls”, the “glucose AUC in OGTT (FIG. 38B)” value (DIO mice [9]; treated for 3 weeks, vs semaglutide) was “statistically lower” and the “glucose levels in Oral Glucose Tolerance test (FIG. 38A)” value (DIO mice [9]; treated for 3 weeks, vs semaglutide, listed as OPK-88604) was “more effective in reducing glucose levels in an Oral Glucose Tolerance test compared to Semaglutide”. The heart weight (DIO mice [10]) was “reduced” and the “weight loss over 4 weeks (FIG. 41A, 41B)” value (DIO mice [11]) was “significant weight loss over 4 weeks compared to placebo”.
